Experimental data taken from PubChem BioAssay AID248 (DTP/NCI, 2004).
Values joined by “and” are separate entries in the source; they are usually repeats but may differ in a detail not shown here. Identical values can stand only once. Toxic doses and inconclusive results are not listed. No stated cut-off is given here; in the data, active means T/C of 150% or more; inactive means T/C below 125%.

System: L1210 leukemia ip in BDF1 mice, survival T/C
Test: NCI In Vivo Anticancer Drug Screen. Data for tumor model L1210 Leukemia (intraperitoneal) in B6D2F1 (BDF1) mice
Conditions: endpoint: mean survival time, higher = longer survival
How it was run: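 Transplantable tumor model; survival measured in treated vs vehicle control mice. Value = treated/control.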

[1] = dose: 100.0 mg/kg/injection, schedule: Q01DX009 (ip), vehicle: saline with Tween-80
[2] = dose: 200.0 mg/kg/injection, schedule: Q01DX009 (ip), vehicle: saline with Tween-80
[3] = dose: 400.0 mg/kg/injection, schedule: Q01DX009 (ip), vehicle: saline with Tween-80
[4] = dose: 100.0 mg/kg/injection, schedule: Q01DX001 (ip), vehicle: saline
[5] = dose: 200.0 mg/kg/injection, schedule: Q01DX001 (ip), vehicle: saline
[6] = dose: 400.0 mg/kg/injection, schedule: Q01DX001 (ip), vehicle: saline
[7] = dose: 100.0 mg/kg/injection, schedule: Q01DX001 (ip), vehicle: Klucel (hydroxypropylcellulose) (HPC)
[8] = dose: 100.0 mg/kg/injection, schedule: Q04DX003 (ip), vehicle: saline
[9] = dose: 100.0 mg/kg/injection, schedule: Q01DX001 (ip), vehicle: carboxymethylcellulose (CMC)
[10] = dose: 200.0 mg/kg/injection, schedule: Q01DX001 (ip), vehicle: carboxymethylcellulose (CMC)
[11] = dose: 400.0 mg/kg/injection, schedule: Q01DX001 (ip), vehicle: carboxymethylcellulose (CMC)
[12] = dose: 100.0 mg/kg/injection, schedule: Q04DX002 (ip), vehicle: Klucel (hydroxypropylcellulose) (HPC)
[13] = dose: 200.0 mg/kg/injection, schedule: Q04DX002 (ip), vehicle: Klucel (hydroxypropylcellulose) (HPC)
[14] = dose: 75.0 mg/kg/injection, schedule: Q01DX009 (ip), vehicle: Klucel (hydroxypropylcellulose) (HPC)
[15] = dose: 150.0 mg/kg/injection, schedule: Q01DX009 (ip), vehicle: Klucel (hydroxypropylcellulose) (HPC)

Measured: T/C

CCCCCCCCCC(=O)N/N=C/c1cccnc1
inactive: dose: 100.0 mg/kg/injection, schedule: Q01DX009 (ip), vehicle: other 96 % of control | dose: 200.0 mg/kg/injection, schedule: Q01DX009 (ip), vehicle: other 86 % of control | dose: 400.0 mg/kg/injection, schedule: Q01DX009 (ip), vehicle: other 86 % of control

Nc1cccc2c1C(=O)c1ccccc1-2
inactive: [1] 97 % of control | [2] 103 % of control | [3] 97 % of control

NC(CCCO)Cc1cc2ccccc2c2ccccc12 (configuration not stated)
inactive: [4] 101 % of control | [5] 101 % of control | [6] 109 % of control

O=C1c2ccsc2C(=O)c2sccc21
inactive: dose: 100.0 mg/kg/injection, schedule: Q01DX001 (ip), vehicle: saline with Tween-80 103 % of control | dose: 200.0 mg/kg/injection, schedule: Q01DX001 (ip), vehicle: saline with Tween-80 92 % of control

CN(C(=O)CCCc1ccc(N(CCCl)CCCl)cc1)c1ccccc1
inactive: dose: 2.0 mg/kg/injection, schedule: Q12HX018 (ip), vehicle: Klucel (hydroxypropylcellulose) (HPC) 100 % of control | dose: 4.0 mg/kg/injection, schedule: Q12HX018 (ip), vehicle: Klucel (hydroxypropylcellulose) (HPC) 96 % of control | dose: 8.0 mg/kg/injection, schedule: Q12HX018 (ip), vehicle: Klucel (hydroxypropylcellulose) (HPC) 107 % of control | dose: 8.0 mg/kg/injection, schedule: Q12HX018 (ip), vehicle: other 110 % of control | dose: 10.0 mg/kg/injection, schedule: Q12HX018 (ip), vehicle: other 101 % of control | dose: 12.0 mg/kg/injection, schedule: Q12HX018 (ip), vehicle: other 100 % of control

CCOC(=O)c1ccc(NC(=O)Cn2cnc3c(=S)nc[nH]c32)cc1
inactive: dose: 25.0 mg/kg/injection, schedule: Q01DX001 (ip), vehicle: Klucel (hydroxypropylcellulose) (HPC) 92 % of control | dose: 50.0 mg/kg/injection, schedule: Q01DX001 (ip), vehicle: Klucel (hydroxypropylcellulose) (HPC) 106 % of control | [7] 95 % of control

COc1cc2c(c(Oc3ccc(C)cc3)c1)CN(C)CC2
inactive: [8] 98 % of control

c1ccc2c(c1)-c1ccccc1-2
inactive: dose: 50.0 mg/kg/injection, schedule: Q01DX001 (ip), vehicle: carboxymethylcellulose (CMC) 97 % of control | [9] 97 % of control | [10] 97 % of control | [11] 103 % of control

NC(N)=NC(N)=Nc1ccccc1
inactive: [12] 101 % of control | [13] 105 % of control | dose: 400.0 mg/kg/injection, schedule: Q04DX002 (ip), vehicle: Klucel (hydroxypropylcellulose) (HPC) 97 % of control

O=C1CC2CCCC(C1)N2CC1COc2ccccc2O1 (configuration not stated)
inactive: dose: 50.0 mg/kg/injection, schedule: Q04DX002 (ip), vehicle: Klucel (hydroxypropylcellulose) (HPC) 90 % of control | [12] 90 % of control | [13] 93 % of control

N#CCC[N+]1([O-])CCCC1C(=O)O (configuration not stated)
inactive: [4] 103 % of control | [5] 101 % of control | [6] 103 % of control

CCCCCCCCCCCCCCCC(=O)N1CCCN(C(=O)CCCCCCCCCCCCCCC)C1
inactive: dose: 30.0 mg/kg/injection, schedule: Q01DX001 (ip), vehicle: saline 93 % of control | [4] 88 % of control | dose: 300.0 mg/kg/injection, schedule: Q01DX001 (ip), vehicle: saline 94 % of control

CC(=O)OC(c1ccccc1)C(C)C(OC(C)=O)(C(F)(F)F)C(F)(F)F (configuration not stated)
inactive: [1] 102 % of control | dose: 100.0 mg/kg/injection, schedule: Q04DX003 (ip), vehicle: saline with Tween-80 102 % of control | [2] 98 % of control | dose: 200.0 mg/kg/injection, schedule: Q04DX003 (ip), vehicle: saline with Tween-80 94 % of control | [3] 100 % of control | dose: 400.0 mg/kg/injection, schedule: Q04DX003 (ip), vehicle: saline with Tween-80 93 % of control

O=c1[nH]c2ccncc2c(=O)n1OS(=O)(=O)c1ccccc1
inactive: [14] 92 % of control | [15] 95 % of control | dose: 300.0 mg/kg/injection, schedule: Q01DX009 (ip), vehicle: Klucel (hydroxypropylcellulose) (HPC) 94 % of control

N#CC(C#N)=C(c1ccccc1)C1CCCCC1
inactive: [4] 92 % of control | [5] 94 % of control | [6] 100 % of control

C#CC(C)N1CCC2(CC1)C(=O)NCN2c1ccccc1 (configuration not stated)
inactive: [7] 98 % of control | dose: 200.0 mg/kg/injection, schedule: Q01DX001 (ip), vehicle: Klucel (hydroxypropylcellulose) (HPC) 97 % of control | dose: 400.0 mg/kg/injection, schedule: Q01DX001 (ip), vehicle: Klucel (hydroxypropylcellulose) (HPC) 95 % of control

CC(=O)Nc1ccc(S(=O)(=O)c2ccc(N)cc2)cc1
inactive: dose: 12.5 mg/kg/injection, schedule: Q04DX002 (ip), vehicle: saline with Tween-80 105 % of control | dose: 25.0 mg/kg/injection, schedule: Q04DX002 (ip), vehicle: saline with Tween-80 109 % of control and 90 % of control | dose: 50.0 mg/kg/injection, schedule: Q04DX002 (ip), vehicle: saline with Tween-80 97 % of control | dose: 100.0 mg/kg/injection, schedule: Q04DX002 (ip), vehicle: saline with Tween-80 97 % of control and 102 % of control | dose: 200.0 mg/kg/injection, schedule: Q04DX002 (ip), vehicle: saline with Tween-80 109 % of control

O=C(Nc1ccccc1)c1cccnc1
inactive: [9] 94 % of control | [10] 91 % of control | [11] 96 % of control

O=C(SCCN1CCCC1)C(O)(c1ccccc1)C1CCCC1 (configuration not stated)
inactive: dose: 75.0 mg/kg/injection, schedule: Q01DX001 (ip), vehicle: carboxymethylcellulose (CMC) 92 % of control | dose: 150.0 mg/kg/injection, schedule: Q01DX001 (ip), vehicle: carboxymethylcellulose (CMC) 96 % of control | dose: 300.0 mg/kg/injection, schedule: Q01DX001 (ip), vehicle: carboxymethylcellulose (CMC) 96 % of control

CCC1(CC)NC(=O)NC1=O
inactive: dose: 50.0 mg/kg/injection, schedule: Q04DX003 (ip), vehicle: saline 102 % of control | dose: 100.0 mg/kg/injection, schedule: Q01DX009 (ip), vehicle: saline 99 % of control | [8] 105 % of control | dose: 200.0 mg/kg/injection, schedule: Q01DX009 (ip), vehicle: saline 98 % of control | dose: 200.0 mg/kg/injection, schedule: Q04DX003 (ip), vehicle: saline 102 % of control | dose: 400.0 mg/kg/injection, schedule: Q01DX009 (ip), vehicle: saline 102 % of control | dose: 400.0 mg/kg/injection, schedule: Q04DX003 (ip), vehicle: saline 103 % of control

O=S(=O)(Nc1cc(Cl)c(NS(=O)(=O)c2ccccc2)c2ccccc12)c1ccccc1
inactive: dose: 75.0 mg/kg/injection, schedule: Q01DX001 (ip), vehicle: Klucel (hydroxypropylcellulose) (HPC) 92 % of control | [14] 92 % of control | dose: 150.0 mg/kg/injection, schedule: Q01DX001 (ip), vehicle: Klucel (hydroxypropylcellulose) (HPC) 101 % of control | [15] 94 % of control | dose: 300.0 mg/kg/injection, schedule: Q01DX001 (ip), vehicle: Klucel (hydroxypropylcellulose) (HPC) 95 % of control

Cc1cc(O)c(O)c(C(C)(C)C)c1
inactive: dose: 100.0 mg/kg/injection, schedule: Q04DX002 (ip), vehicle: other 102 % of control | dose: 200.0 mg/kg/injection, schedule: Q04DX002 (ip), vehicle: other 87 % of control
